From patent US8946215B2, “Hydroxy-substituted imidazo[1,2-a]pyridinecarboxamides and their use” (Bayer Pharma Aktiengesellschaft, priority 2012, dated 2015)
Counter-ions that a name gives are not always drawn.

biological target: T1, recombinant guanylate cyclase reporter cell line (Rattus norvegicus, UniProt P19686+P20595); test: Action on recombinant guanylate cyclase reporter cell line; assay type: cell-based; conditions: in some cases mean values obtained from individual determinations
T1 construct: expressed in transfected cells
T1 sequence (P20595 1-619): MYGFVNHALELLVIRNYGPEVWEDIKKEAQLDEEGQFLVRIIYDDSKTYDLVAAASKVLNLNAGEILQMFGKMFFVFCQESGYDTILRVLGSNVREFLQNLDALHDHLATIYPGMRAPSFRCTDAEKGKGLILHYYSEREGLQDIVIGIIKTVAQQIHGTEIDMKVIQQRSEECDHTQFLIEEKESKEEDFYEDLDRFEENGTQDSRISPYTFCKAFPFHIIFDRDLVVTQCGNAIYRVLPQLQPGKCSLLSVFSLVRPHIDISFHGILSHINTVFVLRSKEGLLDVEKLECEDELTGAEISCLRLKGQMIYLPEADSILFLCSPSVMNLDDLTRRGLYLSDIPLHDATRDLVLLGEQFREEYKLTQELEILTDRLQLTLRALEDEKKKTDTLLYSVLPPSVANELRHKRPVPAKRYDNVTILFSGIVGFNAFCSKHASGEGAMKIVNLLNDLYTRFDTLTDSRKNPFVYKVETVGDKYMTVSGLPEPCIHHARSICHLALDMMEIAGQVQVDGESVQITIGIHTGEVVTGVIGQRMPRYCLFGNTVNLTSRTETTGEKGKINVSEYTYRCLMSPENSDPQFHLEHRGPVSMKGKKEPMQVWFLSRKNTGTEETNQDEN
T1 sequence (P19686 1-690): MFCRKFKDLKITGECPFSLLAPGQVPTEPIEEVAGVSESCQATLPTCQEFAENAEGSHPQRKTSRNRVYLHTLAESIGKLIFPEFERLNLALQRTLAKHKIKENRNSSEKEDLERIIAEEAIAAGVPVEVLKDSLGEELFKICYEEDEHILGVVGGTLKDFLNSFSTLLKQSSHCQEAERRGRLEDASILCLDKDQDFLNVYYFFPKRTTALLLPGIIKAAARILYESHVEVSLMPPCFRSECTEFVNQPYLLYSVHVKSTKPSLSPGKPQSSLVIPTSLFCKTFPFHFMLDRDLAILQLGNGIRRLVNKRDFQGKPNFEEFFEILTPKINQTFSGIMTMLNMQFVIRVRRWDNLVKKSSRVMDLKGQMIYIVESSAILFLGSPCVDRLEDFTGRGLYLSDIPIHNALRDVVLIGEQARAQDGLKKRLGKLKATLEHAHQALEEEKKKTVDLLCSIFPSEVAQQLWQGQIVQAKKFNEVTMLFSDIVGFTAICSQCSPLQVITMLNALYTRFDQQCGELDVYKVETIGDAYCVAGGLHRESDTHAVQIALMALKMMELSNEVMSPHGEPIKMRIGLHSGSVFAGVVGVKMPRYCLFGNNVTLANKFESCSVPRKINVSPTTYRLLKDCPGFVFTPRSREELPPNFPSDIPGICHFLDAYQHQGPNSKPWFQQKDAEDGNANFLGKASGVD
How it was run: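 Cell-based reporter assay with recombinant guanylate cyclase expressed in a reporter cell line, per a published method. Activity reported as minimal effective concentration (MEC), in some cases as the mean of individual determinations.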

Point of comparison: `Cc1nc2c(OCc3c(F)cccc3F)cccn2c1C(=O)N[C@@H](CO)CCO` [Example 129, 8-[(2,6-difluorobenzyl)oxy]-N-[(2R)-1,4-dihydroxybutan-2-yl]-2-methylimidazo[1,2-a]pyridine-3-carboxamide], “MEC (minimal effective concentration)” value 3.0 µM. Against it:
- Cc1nc2c(OCc3c(F)cccc3F)cccn2c1C(=O)NC1(CO)CCC1 [Example 125, 8-[(2,6-Difluorobenzyl)oxy]-N-[1-(hydroxymethyl)cyclobutyl]-2-methylimidazo[1,2-a]pyridine-3-carboxamide] — 10-fold lower, 0.3 µM
- C#Cc1cc(OCc2c(F)cccc2F)c2nc(C)c(C(=O)N[C@@H](CO)CCCC)n2c1 [Example 126, 8-[(2,6-Difluorobenzyl)oxy]-6-ethynyl-N-[(2R)-hydroxyhexan-2-yl]-2-methylimidazo[1,2-a]-pyridine-3-carboxamide] — 30-fold lower, 0.1 µM
- Cc1nc2c(OCc3c(F)cccc3F)cc(Cl)cn2c1C(=O)N[C@@H](CO)CCCO [Example 127, 6-Chloro-8-[(2,6-difluorobenzyl)oxy]-N-[(2R)-1,5-dihydroxypentan-2-yl]-2-methylimidazo[1,2-a]-pyridine-3-carboxamide] — 10-fold lower, 0.3 µM
- Cc1nc2c(OCc3c(F)cccc3F)cc(Cl)cn2c1C(=O)N[C@@H](CO)CCO [Example 128, 6-chloro-8-[(2,6-difluorobenzyl)oxy]-N-[(2R)-1,4-dihydroxybutan-2-yl]-2-methylimidazo[1,2-a]pyridine-3-carboxamide] — 10-fold lower, 0.3 µM
- Cc1nc2c(OCc3c(F)cccc3F)cccn2c1C(=O)N[C@@H](CO)CCCO [Example 130, 8-[(2,6-difluorobenzyl)oxy]-N-[(2R)-1,5-dihydroxypentan-2-yl]-2-methylimidazo[1,2-a]pyridine-3-carboxamide] — 3-fold lower, 1.0 µM
- CCCC[C@H](CO)NC(=O)c1c(C)nc2c(OCc3c(F)cccc3F)cc(Cl)cn12 [Example 131, 6-chloro-8-[(2,6-difluorobenzyl)oxy]-N-[(2R)-1-hydroxyhexan-2-yl]-2-methylimidazo[1,2-a]pyridine-3-carboxamide] — 300-fold lower, 0.01 µM
- CCCC[C@H](CO)NC(=O)c1c(C)nc2c(OCc3c(F)cccc3F)cc(F)cn12 [Example 132, 8-[(2,6-difluorobenzyl)oxy]-6-fluoro-N-[(2R)-1-hydroxyhexan-2-yl]-2-methylimidazo[1,2-a]pyridine-3-carboxamide] — 100-fold lower, 0.03 µM
- CCCC[C@H](CO)NC(=O)c1c(C)nc2c(OCc3c(F)cccc3F)cc(C)cn12 [Example 133, 8-[(2,6-difluorobenzyl)oxy]-N-[(2R)-1-hydroxyhexan-2-yl]-2,6-dimethylimidazo[1,2-a]pyridine-3-carboxamide] — 300-fold lower, 0.01 µM
- Cc1nc2c(OCc3c(F)cccc3F)cccn2c1C(=O)N[C@@H](CO)CC[C@@H](O)C(F)(F)F [Example 135, 8-[(2,6-difluorobenzyl)oxy]-2-methyl-N-[(2R,5R)-6,6,6-trifluoro-1,5-dihydroxyhexan-2-yl]imidazo[1,2-a]pyridine-3-carboxamide trifluoroacetate (1:1)] — 30-fold lower, 0.1 µM
- Cc1nc2c(OCc3c(F)cccc3F)cccn2c1C(=O)NCC(O)COc1ccc(F)cc1 (stereo not shown) [Example 136, 8-[(2,6-difluorobenzyl)oxy]-N-[3-(4-fluorophenoxy)-2-hydroxypropyl]-2-methylimidazo[1,2-a]pyridine-3-carboxamide] — the same, 3.0 µM
- Cc1nc2c(OCc3c(F)cccc3F)cccn2c1C(=O)NCC(O)COc1ccccc1 (stereo not shown) [Example 137, 8-[(2,6-difluorobenzyl)oxy]-N-(2-hydroxy-3-phenoxypropyl)-2-methylimidazo[1,2-a]-pyridine-3-carboxamide] — the same, 3.0 µM
- CCCC[C@@H](NC(=O)c1c(C)nc2c(OCc3c(F)cccc3F)cccn12)C(C)O (stereo partly drawn) [Example 139, 8-[(2,6-Difluorobenzyl)oxy]-N-[(3R)-2-hydroxyheptan-3-yl]-2-methylimidazo[1,2-a]pyridine-3-carboxamide] — 100-fold lower, 0.03 µM
